This note sets out measurements from ChEMBL document CHEMBL6103643, “Total Synthesis of (-)- and (+)-Talaroenamine B and Diphenylene Derivatives” (J Nat Prod, 2025).

Data set [1] is described as follows: Cytotoxicity against human Cisplatin/etoposide-resistant NCI-H446/EP cells assessed as inhibition of cell growth by SRB assay. Type of data set: functional, cell-based. (In SRB staining, fixed cells bind dye roughly in proportion to their protein.)
Data set [2] concerns ASPC1. Briefly: Cytotoxicity against human ASPC1 cells assessed as inhibition of cell growth by SRB assay. The format is functional, cell-based.
For data set [3], the system named is K562. Put plainly: Cytotoxicity against human K562 cells assessed as inhibition of cell growth by MTT assay. Type of data set: functional, cell-based. On the technique in general: Tetrazolium dyes change colour on reduction, which living cells bring about.
The target of data set [4] is Acetylcholinesterase (Homo sapiens, UniProt P22303). Put plainly: Inhibition of AChE (unknown origin) by Ellman's method. Background: Ellman's reagent forms a yellow product with free thiols.
Data set [5] is described as follows: Cytotoxicity against human L02 cells assessed as inhibition of cell growth by SRB assay. The format is toxicity, cell-based.
In data set [6] the test system is NCI-H446. Briefly: Cytotoxicity against human NCI-H446 cells assessed as inhibition of cell growth by SRB assay. The format is functional, cell-based.
Data set [7] in a line: Selectivity index, ratio of IC50 for cytotoxicity against human L02 cells to IC50 for cytotoxicity against human K562 cells. Type of data set: toxicity, cell-based. The settings on record: L02 cells and K562 cells, read-out: Ratio IC50.

Where a name gives a salt, the structure may show the parent alone. A value given as a limit tells only on which side of the number the result lay.

Acetylcholinesterase, sequence (P22303 whole entry): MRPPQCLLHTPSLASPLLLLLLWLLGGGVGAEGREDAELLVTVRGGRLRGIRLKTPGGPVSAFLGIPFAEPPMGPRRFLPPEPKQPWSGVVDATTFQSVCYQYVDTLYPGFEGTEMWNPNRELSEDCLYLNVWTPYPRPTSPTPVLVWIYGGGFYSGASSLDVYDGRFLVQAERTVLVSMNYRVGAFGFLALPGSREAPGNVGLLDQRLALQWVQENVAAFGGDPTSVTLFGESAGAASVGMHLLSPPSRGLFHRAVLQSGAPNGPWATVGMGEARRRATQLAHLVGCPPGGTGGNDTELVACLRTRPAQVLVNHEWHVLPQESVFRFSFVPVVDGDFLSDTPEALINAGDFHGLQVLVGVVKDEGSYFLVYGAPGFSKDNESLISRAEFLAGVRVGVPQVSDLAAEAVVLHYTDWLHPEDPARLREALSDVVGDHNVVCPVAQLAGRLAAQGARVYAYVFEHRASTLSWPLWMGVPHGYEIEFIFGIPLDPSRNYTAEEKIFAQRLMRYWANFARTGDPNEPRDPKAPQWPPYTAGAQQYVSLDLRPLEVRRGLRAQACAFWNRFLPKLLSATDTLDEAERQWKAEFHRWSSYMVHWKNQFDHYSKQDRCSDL

Turning to `CC1=CC(=O)[C@@](C)(O)C(=O)/C1=C\Nc1ccc(Oc2ccc(C#N)cc2)cc1`, the IC50 – broadly, the concentration needed to halve the response being measured – in data set [1] is greater than 30 µM; in data set [2] it was greater than 30 µM; in data set [3], greater than 30 µM; in data set [4], 4.7 µM; in data set [5] it was greater than 30 µM; in data set [6], greater than 30 µM.
Take `CC1=CC(=O)[C@@](C)(O)C(=O)/C1=C\Nc1ccc(Oc2ccc(Cl)cc2)cc1`: the IC50 in data set [1] is greater than 30 µM; in data set [2] it was greater than 30 µM; in data set [3], greater than 30 µM; in data set [4], greater than 100 µM; in data set [5], greater than 30 µM; in data set [6], greater than 30 µM.
For the molecule `CC1=CC(=O)[C@](C)(O)C(=O)/C1=C\Nc1ccccc1`, the IC50 was greater than 30 µM in data set [1]; greater than 30 µM in data set [2]; greater than 30 µM in data set [3]; greater than 100 µM in data set [4]; greater than 30 µM in data set [5]; greater than 30 µM in data set [6].
In the case of `CC1=CC(=O)[C@](C)(O)C(=O)/C1=C\Nc1ccc(Oc2ccc([N+](=O)[O-])cc2)cc1`, the IC50 in data set [1] is greater than 30 µM; in data set [2] it was greater than 30 µM; in data set [3], greater than 30 µM; in data set [4], 68.1 µM; in data set [5], greater than 30 µM; in data set [6], greater than 30 µM.
In the case of `CC1=CC(=O)[C@](C)(O)C(=O)/C1=C\Nc1ccc(Oc2ccc(Cl)cc2)cc1`, the IC50 in data set [1] was greater than 30 µM; in data set [2] it was greater than 30 µM; in data set [3] it was 9.5 µM; in data set [4], greater than 100 µM; in data set [5] it was 17 µM; in data set [6], greater than 30 µM. Also, the selectivity ratio in data set [7] was determined as 1.7.
On to `CC1=CC(=O)[C@@](C)(O)C(=O)/C1=C\Nc1ccc(Oc2ccc(C)cc2)cc1`, for which the IC50 is greater than 30 µM in data set [1]; greater than 30 µM in data set [2]; greater than 30 µM in data set [3]; greater than 100 µM in data set [4]; greater than 30 µM in data set [5]; greater than 30 µM in data set [6].
In the case of `CC1=CC(=O)[C@@](C)(O)C(=O)/C1=C\Nc1ccccc1`, the IC50 in data set [1] was greater than 30 µM; in data set [2], greater than 30 µM; in data set [3], greater than 30 µM; in data set [4] it was greater than 100 µM; in data set [5], greater than 30 µM; in data set [6] it was greater than 30 µM.
On to `CC1=CC(=O)[C@@](C)(O)C(=O)/C1=C\Nc1ccc(Oc2cccc(F)c2)cc1`, for which the IC50 in data set [1] is greater than 30 µM; in data set [2] it was greater than 30 µM; in data set [3], greater than 30 µM; in data set [4] it was greater than 100 µM; in data set [5], greater than 30 µM; in data set [6], greater than 30 µM.
With `CC1=CC(=O)[C@](C)(O)C(=O)/C1=C\Nc1ccc(Cc2ccccc2)cc1`, the IC50 in data set [1] was greater than 30 µM; in data set [2] it was greater than 30 µM; in data set [3], 5.6 µM; in data set [4] it was 4.5 µM; in data set [5], 18.6 µM; in data set [6], greater than 30 µM. Besides, the selectivity ratio in data set [7] amounted to 3.3.
On to `CC1=CC(=O)[C@](C)(O)C(=O)/C1=C\Nc1ccc(Oc2ccc(C#N)cc2)cc1`, for which the IC50 was greater than 30 µM in data set [1]; greater than 30 µM in data set [2]; greater than 30 µM in data set [3]; 24.4 µM in data set [4]; greater than 30 µM in data set [5]; greater than 30 µM in data set [6].
For the molecule `CC1=CC(=O)[C@](C)(O)C(=O)/C1=C\Nc1ccc(Oc2cccc(F)c2)cc1`, the 50% inhibitory concentration (IC50) in data set [1] was greater than 30 µM; in data set [2], greater than 30 µM; in data set [3], 15.5 µM; in data set [4], greater than 100 µM; in data set [5] it was greater than 30 µM; in data set [6], greater than 30 µM. Also, the selectivity ratio in data set [7] was greater than 1.9.
On to `COc1cccc2c1C(=O)c1c(O)c3c(c(O)c1C2=O)C[C@@](O)(C(=O)CO)C[C@@H]3O[C@H]1C[C@H](N)[C@H](O)[C@H](C)O1` [DOXORUBICIN HYDROCHLORIDE], for which the IC50 in data set [1] came out at 0.2 µM; in data set [2] it was 15.1 µM; in data set [6] it was 0.3 µM.
Consider `CC1=CC(=O)[C@](C)(O)C(=O)/C1=C\Nc1ccc(Oc2ccc(C)cc2)cc1`, for which the IC50 was greater than 30 µM in data set [1]; greater than 30 µM in data set [2]; greater than 30 µM in data set [3]; greater than 100 µM in data set [4]; 19.8 µM in data set [5]; greater than 30 µM in data set [6].
For the molecule `CC1=CC(=O)[C@@](C)(O)C(=O)/C1=C\Nc1ccc(Oc2ccc([N+](=O)[O-])cc2)cc1`, the IC50 is greater than 30 µM in data set [1]; greater than 30 µM in data set [2]; greater than 30 µM in data set [3]; greater than 100 µM in data set [4]; greater than 30 µM in data set [5]; greater than 30 µM in data set [6].
Take `CC1=CC(=O)[C@@](C)(O)C(=O)/C1=C\Nc1ccc(Cc2ccccc2)cc1`: the concentration for half-maximal inhibition (IC50) is greater than 30 µM in data set [1]; greater than 30 µM in data set [2]; greater than 30 µM in data set [3]; greater than 100 µM in data set [4]; greater than 30 µM in data set [5]; greater than 30 µM in data set [6].
